Data as given in ChEMBL document CHEMBL1142627, “Ribofuranosyl triazolone: a natural product herbicide with activity on adenylosuccinate synthetase following phosphorylation” (J Nat Prod, 2000).
Calls of active or inactive are those of the source. No cut-off for these calls is given here.

Assays:
Amaranthus retroflexus [1] = test: Phytotoxicity against Amaranthus retroflexus assessed as visual injury at 2.0 kg/ha growth rate treated post-emergence by greenhouse test; format: functional
Alopecurus myosuroides [2] = test: Phytotoxicity against Alopecurus myosuroides assessed as visual injury at 4.0 kg/ha growth rate treated pre-emergence by greenhouse test; format: functional
Setaria faberi [3] = test: Phytotoxicity against Setaria faberi assessed as visual injury at 1.0 kg/ha growth rate treated post-emergence by greenhouse test; format: functional
Helianthus annuus [4] = test: Phytotoxicity against Helianthus annuus assessed as visual injury at 0.5 kg/ha growth rate treated pre-emergence by greenhouse test; format: functional
Abutilon theophrasti [5] = test: Phytotoxicity against Abutilon theophrasti assessed as visual injury at 1.0 kg/ha growth rate treated post-emergence by greenhouse test; format: functional
Echinochloa crus-galli [6] = test: Phytotoxicity against Echinochloa crusgalli assessed as visual injury at 1.0 kg/ha growth rate treated pre-emergence by greenhouse test; format: functional
Alopecurus myosuroides [7] = test: Phytotoxicity against Alopecurus myosuroides assessed as visual injury at 1.0 kg/ha growth rate treated post-emergence by greenhouse test; format: functional
Abutilon theophrasti [8] = test: Phytotoxicity against Abutilon theophrasti assessed as visual injury at 2.0 kg/ha growth rate treated post-emergence by greenhouse test; format: functional
Alopecurus myosuroides [9] = test: Phytotoxicity against Alopecurus myosuroides assessed as visual injury at 2.0 kg/ha growth rate treated pre-emergence by greenhouse test; format: functional
Setaria faberi [10] = test: Phytotoxicity against Setaria faberi assessed as visual injury at 2.0 kg/ha growth rate treated post-emergence by greenhouse test; format: functional
Echinochloa crus-galli [11] = test: Phytotoxicity against Echinochloa crusgalli assessed as visual injury at 4.0 kg/ha growth rate treated pre-emergence by greenhouse test; format: functional
Avena fatua [12] = test: Phytotoxicity against Avena fatua assessed as visual injury at 0.5 kg/ha growth rate treated pre-emergence by greenhouse test; format: functional
Helianthus annuus [13] = test: Phytotoxicity against Helianthus annuus assessed as visual injury at 2.0 kg/ha growth rate treated pre-emergence by greenhouse test; format: functional
Avena fatua [14] = test: Phytotoxicity against Avena fatua assessed as visual injury at 0.5 kg/ha growth rate treated post-emergence by greenhouse test; format: functional
Ipomoea hederacea [15] = test: Phytotoxicity against Ipomoea hederacea assessed as visual injury at 0.5 kg/ha growth rate treated pre-emergence by greenhouse test; format: functional
Setaria faberi [16] = test: Phytotoxicity against Setaria faberi assessed as visual injury at 1.0 kg/ha growth rate treated pre-emergence by greenhouse test; format: functional
Ipomoea hederacea [17] = test: Phytotoxicity against Ipomoea hederacea assessed as visual injury at 4.0 kg/ha growth rate treated pre-emergence by greenhouse test; format: functional
Echinochloa crus-galli [18] = test: Phytotoxicity against Echinochloa crusgalli assessed as visual injury at 0.5 kg/ha growth rate treated pre-emergence by greenhouse test; format: functional
Helianthus annuus [19] = test: Phytotoxicity against Helianthus annuus assessed as visual injury at 4.0 kg/ha growth rate treated pre-emergence by greenhouse test; format: functional
Oryctolagus cuniculus = species: Oryctolagus cuniculus; test: Inhibition of rabbit muscle Adenylosuccinate synthase assessed as adenylosuccinate formation
Setaria faberi [20] = test: Phytotoxicity against Setaria faberi assessed as visual injury at 2.0 kg/ha growth rate treated pre-emergence by greenhouse test; format: functional
Avena fatua [21] = test: Phytotoxicity against Avena fatua assessed as visual injury at 2.0 kg/ha growth rate treated post-emergence by greenhouse test; format: functional
Abutilon theophrasti [22] = test: Phytotoxicity against Abutilon theophrasti assessed as visual injury at 4.0 kg/ha growth rate treated post-emergence by greenhouse test; format: functional
Setaria faberi [23] = test: Phytotoxicity against Setaria faberi assessed as visual injury at 0.5 kg/ha growth rate treated pre-emergence by greenhouse test; format: functional
Ipomoea hederacea [24] = test: Phytotoxicity against Ipomoea hederacea assessed as visual injury at 0.5 kg/ha growth rate treated post-emergence by greenhouse test; format: functional
Amaranthus retroflexus [25] = test: Phytotoxicity against Amaranthus retroflexus assessed as visual injury at 1.0 kg/ha growth rate treated post-emergence by greenhouse test; format: functional
Amaranthus retroflexus [26] = test: Phytotoxicity against Amaranthus retroflexus assessed as visual injury at 0.5 kg/ha growth rate treated post-emergence by greenhouse test; format: functional
Arabidopsis thaliana [27] = test: Inhibition of Arabidopsis thaliana root growth; format: functional, organism-based
Helianthus annuus [28] = test: Phytotoxicity against Helianthus annuus assessed as visual injury at 1.0 kg/ha growth rate treated post-emergence by greenhouse test; format: functional
Helianthus annuus [29] = test: Phytotoxicity against Helianthus annuus assessed as visual injury at 1.0 kg/ha growth rate treated pre-emergence by greenhouse test; format: functional
Ipomoea hederacea [30] = test: Phytotoxicity against Ipomoea hederacea assessed as visual injury at 1.0 kg/ha growth rate treated post-emergence by greenhouse test; format: functional
Arabidopsis thaliana [31] = test: Metabolite reversal in Arabidopsis thaliana assessed as root growth inhibition in presence of adenine and guanine; format: functional, organism-based
Alopecurus myosuroides [32] = test: Phytotoxicity against Alopecurus myosuroides assessed as visual injury at 4.0 kg/ha growth rate treated post-emergence by greenhouse test; format: functional
Abutilon theophrasti [33] = test: Phytotoxicity against Abutilon theophrasti assessed as visual injury at 0.5 kg/ha growth rate treated pre-emergence by greenhouse test; format: functional
Echinochloa crus-galli [34] = test: Phytotoxicity against Echinochloa crusgalli assessed as visual injury at 1.0 kg/ha growth rate treated post-emergence by greenhouse test; format: functional
Setaria faberi [35] = test: Phytotoxicity against Setaria faberi assessed as visual injury at 4.0 kg/ha growth rate treated post-emergence by greenhouse test; format: functional
Abutilon theophrasti [36] = test: Phytotoxicity against Abutilon theophrasti assessed as visual injury at 1.0 kg/ha growth rate treated pre-emergence by greenhouse test; format: functional
Alopecurus myosuroides [37] = test: Phytotoxicity against Alopecurus myosuroides assessed as visual injury at 0.5 kg/ha growth rate treated post-emergence by greenhouse test; format: functional
Echinochloa crus-galli [38] = test: Phytotoxicity against Echinochloa crusgalli assessed as visual injury at 2.0 kg/ha growth rate treated post-emergence by greenhouse test; format: functional
Ipomoea hederacea [39] = test: Phytotoxicity against Ipomoea hederacea assessed as visual injury at 2.0 kg/ha growth rate treated post-emergence by greenhouse test; format: functional
Amaranthus retroflexus [40] = test: Phytotoxicity against Amaranthus retroflexus assessed as visual injury at 4.0 kg/ha growth rate treated post-emergence by greenhouse test; format: functional
Ipomoea hederacea [41] = test: Phytotoxicity against Ipomoea hederacea assessed as visual injury at 4.0 kg/ha growth rate treated post-emergence by greenhouse test; format: functional
Amaranthus retroflexus [42] = test: Phytotoxicity against Amaranthus retroflexus assessed as visual injury at 2.0 kg/ha growth rate treated pre-emergence by greenhouse test; format: functional
Echinochloa crus-galli [43] = test: Phytotoxicity against Echinochloa crusgalli assessed as visual injury at 2.0 kg/ha growth rate treated pre-emergence by greenhouse test; format: functional
Alopecurus myosuroides [44] = test: Phytotoxicity against Alopecurus myosuroides assessed as visual injury at 2.0 kg/ha growth rate treated post-emergence by greenhouse test; format: functional
Echinochloa crus-galli [45] = test: Phytotoxicity against Echinochloa crusgalli assessed as visual injury at 4.0 kg/ha growth rate treated post-emergence by greenhouse test; format: functional
Abutilon theophrasti [46] = test: Phytotoxicity against Abutilon theophrasti assessed as visual injury at 2.0 kg/ha growth rate treated pre-emergence by greenhouse test; format: functional
Abutilon theophrasti [47] = test: Phytotoxicity against Abutilon theophrasti assessed as visual injury at 0.5 kg/ha growth rate treated post-emergence by greenhouse test; format: functional
Amaranthus retroflexus [48] = test: Phytotoxicity against Amaranthus retroflexus assessed as visual injury at 4.0 kg/ha growth rate treated pre-emergence by greenhouse test; format: functional
Ipomoea hederacea [49] = test: Phytotoxicity against Ipomoea hederacea assessed as visual injury at 1.0 kg/ha growth rate treated pre-emergence by greenhouse test; format: functional
Alopecurus myosuroides [50] = test: Phytotoxicity against Alopecurus myosuroides assessed as visual injury at 0.5 kg/ha growth rate treated pre-emergence by greenhouse test; format: functional
Alopecurus myosuroides [51] = test: Phytotoxicity against Alopecurus myosuroides assessed as visual injury at 1.0 kg/ha growth rate treated pre-emergence by greenhouse test; format: functional
Amaranthus retroflexus [52] = test: Phytotoxicity against Amaranthus retroflexus assessed as visual injury at 1.0 kg/ha growth rate treated pre-emergence by greenhouse test; format: functional
Abutilon theophrasti [53] = test: Phytotoxicity against Abutilon theophrasti assessed as visual injury at 4.0 kg/ha growth rate treated pre-emergence by greenhouse test; format: functional
BMS = test: Inhibition of Zea mays BMS cells Adenylosuccinate synthase assessed as adenylosuccinate formation; format: cell-based
Helianthus annuus [54] = test: Phytotoxicity against Helianthus annuus assessed as visual injury at 2.0 kg/ha growth rate treated post-emergence by greenhouse test; format: functional
Avena fatua [55] = test: Phytotoxicity against Avena fatua assessed as visual injury at 1.0 kg/ha growth rate treated pre-emergence by greenhouse test; format: functional
Echinochloa crus-galli [56] = test: Phytotoxicity against Echinochloa crusgalli assessed as visual injury at 0.5 kg/ha growth rate treated post-emergence by greenhouse test; format: functional
Setaria faberi [57] = test: Phytotoxicity against Setaria faberi assessed as visual injury at 0.5 kg/ha growth rate treated post-emergence by greenhouse test; format: functional
Arabidopsis thaliana [58] = test: Metabolite reversal in Arabidopsis thaliana assessed as root growth inhibition in presence of adenine; format: functional, organism-based
Helianthus annuus [59] = test: Phytotoxicity against Helianthus annuus assessed as visual injury at 0.5 kg/ha growth rate treated post-emergence by greenhouse test; format: functional
Arabidopsis thaliana [60] = test: Metabolite reversal in Arabidopsis thaliana assessed as root growth inhibition in presence of guanine; format: functional, organism-based
Avena fatua [61] = test: Phytotoxicity against Avena fatua assessed as visual injury at 4.0 kg/ha growth rate treated post-emergence by greenhouse test; format: functional
Avena fatua [62] = test: Phytotoxicity against Avena fatua assessed as visual injury at 4.0 kg/ha growth rate treated pre-emergence by greenhouse test; format: functional
Avena fatua [63] = test: Phytotoxicity against Avena fatua assessed as visual injury at 2.0 kg/ha growth rate treated pre-emergence by greenhouse test; format: functional
Ipomoea hederacea [64] = test: Phytotoxicity against Ipomoea hederacea assessed as visual injury at 2.0 kg/ha growth rate treated pre-emergence by greenhouse test; format: functional
Avena fatua [65] = test: Phytotoxicity against Avena fatua assessed as visual injury at 1.0 kg/ha growth rate treated post-emergence by greenhouse test; format: functional
Helianthus annuus [66] = test: Phytotoxicity against Helianthus annuus assessed as visual injury at 4.0 kg/ha growth rate treated post-emergence by greenhouse test; format: functional
Amaranthus retroflexus [67] = test: Phytotoxicity against Amaranthus retroflexus assessed as visual injury at 0.5 kg/ha growth rate treated pre-emergence by greenhouse test; format: functional
Setaria faberi [68] = test: Phytotoxicity against Setaria faberi assessed as visual injury at 4.0 kg/ha growth rate treated pre-emergence by greenhouse test; format: functional
[69] = Arabidopsis thaliana, read-out: I50

SMILES: O=c1[nH]ncn1[C@@H]1O[C@H](CO)[C@@H](O)[C@H]1O
- Activity (Amaranthus retroflexus [1]): 50%
- Activity (Alopecurus myosuroides [2]): 40%
- Activity (Setaria faberi [3]): 70%
- Activity (Helianthus annuus [4]): 0%
- Activity (Abutilon theophrasti [5]): 70%
- Activity (Echinochloa crus-galli [6]): 0%
- Activity (Alopecurus myosuroides [7]): 70%
- Activity (Abutilon theophrasti [8]): 80%
- Activity (Alopecurus myosuroides [9]): 35%
- Activity (Setaria faberi [10]): 60%
- Activity (Echinochloa crus-galli [11]): 0%
- Activity (Avena fatua [12]): 0%
- Activity (Helianthus annuus [13]): 20%
- Activity (Avena fatua [14]): 50%
- Activity (Ipomoea hederacea [15]): 15%
- Activity (Setaria faberi [16]): 0%
- Activity (Ipomoea hederacea [17]): 40%
- Activity (Echinochloa crus-galli [18]): 0%
- Activity (Helianthus annuus [19]): 60%
- Activity (Oryctolagus cuniculus): inactive
- Activity (Setaria faberi [20]): 0%
- Activity (Avena fatua [21]): 70%
- Activity (Abutilon theophrasti [22]): 80%
- Activity (Setaria faberi [23]): 0%
- Activity (Ipomoea hederacea [24]): 75%
- Activity (Amaranthus retroflexus [25]): 50%
- Activity (Amaranthus retroflexus [26]): 0%
- I50 (Arabidopsis thaliana [27]): 0.04 ppm
- IC50 (Arabidopsis thaliana [27]; [69]): 0.2 µM
- Activity (Helianthus annuus [28]): 100%
- Activity (Helianthus annuus [29]): 10%
- Activity (Ipomoea hederacea [30]): 80%
- I50 (Arabidopsis thaliana [31]): 2.5 ppm
- IC50 (Arabidopsis thaliana [31]; [69]): 11.5 µM
- Activity (Alopecurus myosuroides [32]): 80%
- Activity (Abutilon theophrasti [33]): 15%
- Activity (Echinochloa crus-galli [34]): 85%
- Activity (Setaria faberi [35]): 85%
- Activity (Abutilon theophrasti [36]): 30%
- Activity (Alopecurus myosuroides [37]): 40%
- Activity (Echinochloa crus-galli [38]): 85%
- Activity (Ipomoea hederacea [39]): 80%
- Activity (Amaranthus retroflexus [40]): 70%
- Activity (Ipomoea hederacea [41]): 90%
- Activity (Amaranthus retroflexus [42]): 0%
- Activity (Echinochloa crus-galli [43]): 0%
- Activity (Alopecurus myosuroides [44]): 70%
- Activity (Echinochloa crus-galli [45]): 90%
- Activity (Abutilon theophrasti [46]): 30%
- Activity (Abutilon theophrasti [47]): 85%
- Activity (Amaranthus retroflexus [48]): 0%
- Activity (Ipomoea hederacea [49]): 25%
- Activity (Alopecurus myosuroides [50]): 0%
- Activity (Alopecurus myosuroides [51]): 30%
- Activity (Amaranthus retroflexus [52]): 0%
- Activity (Abutilon theophrasti [53]): 65%
- Activity (BMS): inactive
- Activity (Helianthus annuus [54]): 95%
- Activity (Avena fatua [55]): 0%
- Activity (Echinochloa crus-galli [56]): 70%
- Activity (Setaria faberi [57]): 50%
- I50 (Arabidopsis thaliana [58]): 1.8 ppm
- IC50 (Arabidopsis thaliana [58]; [69]): 8.3 µM
- Activity (Helianthus annuus [59]): 90%
- Activity (Arabidopsis thaliana [60]): inactive
- Activity (Avena fatua [61]): 60%
- Activity (Avena fatua [62]): 0%
- Activity (Avena fatua [63]): 0%
- Activity (Ipomoea hederacea [64]): 40%
- Activity (Avena fatua [65]): 60%
- Activity (Helianthus annuus [66]): 95%
- Activity (Amaranthus retroflexus [67]): 0%
- Activity (Setaria faberi [68]): 0%

SMILES: O=C1NC(=O)[C@@]2(N1)O[C@H](COP(=O)(O)O)[C@@H](O)[C@H]2O
- Activity (Oryctolagus cuniculus; TDE = time-dependent effect): tde
- Activity (BMS; TDE = time-dependent effect): tde
